The values that follow come from publication PMC2631173 (Chemistry & biology, 2008).

For this assay, the target named is cellular retinoic acid-binding protein I (CRABP I), CPG variant (Mus musculus, UniProt P62965, R132Q). The assay can be described thus: fluorescence equilibrium titration of […] FlAsH with purified protein, […] EDT.
Chain of cellular retinoic acid-binding protein I (CRABP I), CPG variant (P62965 2-137 R132Q): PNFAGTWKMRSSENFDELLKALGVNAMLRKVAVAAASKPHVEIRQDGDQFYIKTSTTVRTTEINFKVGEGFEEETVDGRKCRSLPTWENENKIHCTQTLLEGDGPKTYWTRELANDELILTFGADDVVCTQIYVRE

`O=C1OC2(c3ccccc31)c1ccc(O)c([As]3SCCS3)c1Oc1c2ccc(O)c1[As]1SCCS1` [FlAsH] registered an equilibrium dissociation constant (Kd) of 400 nM.

The Kd is the free concentration of one partner at which half of the binding sites on the other are occupied at equilibrium, for simple one-to-one binding.
